Test results: PMC7714071, “Interaction of amyloid beta with humanin and acetylcholinesterase is modulated by ATP” (FEBS Open Bio, 2020)

Tested on: Aβ in A549 cell-conditioned media
Experiment: ELISA, oligomer versus total Aβ in A549 cell-conditioned media
Type: cell-based, human
Conditions: Fig. 8A
Protocol: Aβ ELISAs were carried out according to previous protocols for determining the oligomeric and monomeric concentrations of Aβ and as we recently reported. Briefly, total Aβ (monomers + oligomers) was measured by two‐site binding ELISAs using the capture 6E10 monoclonal antibody and 4G8‐conjugated biotin as the detection antibody, which recognizes a distinct epitope, then quantitated using streptavidin‐HRP.
Using the same samples, oligomerized Aβ was measured by a single‐site ELISA in which antibodies targeting the same primary sequence epitope were used for both capture (4G8) and detection (4G8‐biotin). Only oligomers are detected with this approach since the 4G8‐biotin antibody cannot bind to the captured monomer because the epitope is blocked by the 4G8 capture antibody. Therefore, only oligomeric or multimeric Aβ containing additional exposed 4G8 epitopes, not engaged by the capture antibody, are reported by the streptavidin–HRP. The amount of the monomer was then estimated as the difference between the concentration of total Aβ and the concentration of the oligomer.
Conditioned media were immunodepleted (ID) according to the methods previously described and our recently published report. Briefly, specific antibodies were bound to ELISA wells overnight (1 : 1000 dilution). The wells were then blocked and washed, then 300 μL of the conditioned medium (0.5 μg·μL^−1) treated as indicated, 72 h postserum starvation, was incubated with the antibodies bound to ELISA wells for 24 h. The ID media were then carefully removed and analyzed for the presence of the target protein or peptide by ELISA. The same amount of protein (3 µL of 600 µg·mL^−1 total protein) of each sample was analyzed in the experiments. Significant depletion (95–100%) was observed upon using each of the antibodies employed in this study.
Both epitopes recognized by the 6E10 and 4G8 antibodies have been previously shown to be exposed in Aβ aggregates. […] To determine the effect of ID of AChE or HN on this ratio in the absence or presence of added ATP, 0.2 × 10^5 cells per well were seeded in 96‐well plates in 10% FBS‐supplemented media. The next day, the cells were incubated in serum‐free medium for 72 h, then ID of AChE or HN as described in Materials and methods. The antibodies 6E10 or 4G8 were bound (1 : 1000 dilution) to ELISA wells (Fig. 8). The wells were blocked, and then incubated with 300 μL of the ID medium (0.5 μg·μL^−1). Biotin‐4G8 was then added and the signal processed as described in Materials and methods section. Fold change relative to controls using anti‐6E10 or anti‐4G8 antibodies incubated with 300 μL of the medium not incubated with cells was calculated.
Cells (0.2 × 10^5) were grown in 10% FBS‐supplemented media for 24 h. The cells were then incubated in serum‐free medium for 72 h without or with ATP and the media collected and ID from either HN or AChE as described in Materials and methods section. The antibodies 6E10 or 4G8 were bound (1 : 1000 dilution) to ELISA wells. The wells were blocked, and then incubated with 300 μL of the control and ID medium (0.5 μg·μL^−1). Biotin‐4G8 was then added and the signal processed as described in Materials and methods section. Fold change relative to controls using anti‐6E10 and anti‐4G8 antibodies and 300 μL of the medium not incubated with cells was calculated. Data were processed using the […] 8.4.3 software. The graphs summarize the results expressed as means ± SD of three separate experiments, each performed in triplicate. […]

`Nc1ncnc2c1ncn2[C@@H]1O[C@H](COP(=O)(O)OP(=O)(O)OP(=O)(O)O)[C@@H](O)[C@H]1O` [ATP, Adenosine triphosphate] was tested, and the “effect of ATP on relative amount of oligomer versus total Aβ” value (HN-immunodepleted A549 media, three experiments in triplicate) was “does not affect” and the “effect of ATP on relative amount of oligomer versus total Aβ” value (non-depleted, HN-ID or AChE-ID media) was “lack of effect”.
In the case of Humanin [HN], the “oligomer, % of total Aβ remaining after HN ID” value (HN-immunodepleted A549 media (non-depleted ~ 63%)) is reported as ~ 86% and the “total Aβ remaining after HN ID” value (HN-immunodepleted A549 media) is reported as ~ 63%.
